# Like-named read-outs stand apart in the source and are kept apart here.
# Experiments:
# Format in all cases: biochemical
# RNAP holoenzyme [1] = molecular target: T1, RNAP holoenzyme (Escherichia coli, UniProt P0A8T7+P0A8V2); assay: Electrophoretic mobility shift assays (open-complex formation); details: MccJ25 at 1, 10, or 100 μM; lacUV5 promoter
# Description: Following 15 min at 37° C., 0.5 μl 1 mg/ml heparin was added (to disrupt non-specific complexes), and, following a further 2 min at 37° C., reaction mixtures were applied to 5% polyacrylamide slab gels (30:1 acrylamide/bisacrylamide; 6×9×0.1 cm) and electrophoresed in 90 mM Tris-borate (pH 8.0) and 0.2 mM EDTA (20 V/cm; 30 min at 37° C.) and analyzed using a fluorescence scanner (Storm 860; Molecular Dynamics)
# RNAP holoenzyme [2] = molecular target: T1, RNAP holoenzyme; details: FIG. 3F
# Description: Following 15 min at 37° C., 0.5 μl 1 mg/ml heparin was added, and, following a further 2 min at 37° C., 1 μl of 0.25-5 mM (γ-AmNS)UTP (Molecular Probes) was added, and reaction mixtures were transferred to sub-micro fluorometer cuvettes (Starna Cells). Following 2 min at 37° C., RNA synthesis was initiated by addition of 2.5 μl 10 mM ApA, and fluorescence emission intensity was monitored 5 min at 37° C. [excitation wavelength=360 nm and emission wavelength=500 nm; excitation and emission slit widths=4 nm; QuantaMaster QM1 spectrofluorometer (PTI)]. The quantity of UMP incorporated into RNA was determined from the quantity of (γ-AmNS)UTP consumed, which, in turn, was calculated as follows (Schlageck et al., (1979) J. Biol. Chem. 254, 12074-12077): (γ-AmNS)UTPconsumed=[(γ-AmNS)UTP0](Ft−F0)/(12.4×F0) (1) where (γ-AmNS)UTP0 is the quantity of (γ-AmNS) UTP at time 0, F0 is the fluorescence emission intensity at time 0, and Ft is the fluorescence emission intensity at time t. Data were fit to full-competitive, partial-competitive, full-noncompetitive, partial-noncompetitive, full-uncompetitive, partial-uncompetitive, full-mixed, and partial-mixed models of inhibition as in the preceding section.
# [3] = molecular target: T2, halted transcription elongation complex containing 12 nt of RNA (TEC12) (Escherichia coli, UniProt P0A8T7+P0A8V2); assay: Transcription experiment starting with halted elongation complex (TEC12); details: 0, 1, 10, or 100 μM MccJ25; compared with open-complex experiments
# T2 construct: made in house
# Description: TEC12 was prepared by reaction for 5 min at 37° C. with 0.5 mM ApA, and 12.5 μM each of [α-^32P]UTP, ATP, and GTP.
# T1 sequence (P0A8V2 whole entry): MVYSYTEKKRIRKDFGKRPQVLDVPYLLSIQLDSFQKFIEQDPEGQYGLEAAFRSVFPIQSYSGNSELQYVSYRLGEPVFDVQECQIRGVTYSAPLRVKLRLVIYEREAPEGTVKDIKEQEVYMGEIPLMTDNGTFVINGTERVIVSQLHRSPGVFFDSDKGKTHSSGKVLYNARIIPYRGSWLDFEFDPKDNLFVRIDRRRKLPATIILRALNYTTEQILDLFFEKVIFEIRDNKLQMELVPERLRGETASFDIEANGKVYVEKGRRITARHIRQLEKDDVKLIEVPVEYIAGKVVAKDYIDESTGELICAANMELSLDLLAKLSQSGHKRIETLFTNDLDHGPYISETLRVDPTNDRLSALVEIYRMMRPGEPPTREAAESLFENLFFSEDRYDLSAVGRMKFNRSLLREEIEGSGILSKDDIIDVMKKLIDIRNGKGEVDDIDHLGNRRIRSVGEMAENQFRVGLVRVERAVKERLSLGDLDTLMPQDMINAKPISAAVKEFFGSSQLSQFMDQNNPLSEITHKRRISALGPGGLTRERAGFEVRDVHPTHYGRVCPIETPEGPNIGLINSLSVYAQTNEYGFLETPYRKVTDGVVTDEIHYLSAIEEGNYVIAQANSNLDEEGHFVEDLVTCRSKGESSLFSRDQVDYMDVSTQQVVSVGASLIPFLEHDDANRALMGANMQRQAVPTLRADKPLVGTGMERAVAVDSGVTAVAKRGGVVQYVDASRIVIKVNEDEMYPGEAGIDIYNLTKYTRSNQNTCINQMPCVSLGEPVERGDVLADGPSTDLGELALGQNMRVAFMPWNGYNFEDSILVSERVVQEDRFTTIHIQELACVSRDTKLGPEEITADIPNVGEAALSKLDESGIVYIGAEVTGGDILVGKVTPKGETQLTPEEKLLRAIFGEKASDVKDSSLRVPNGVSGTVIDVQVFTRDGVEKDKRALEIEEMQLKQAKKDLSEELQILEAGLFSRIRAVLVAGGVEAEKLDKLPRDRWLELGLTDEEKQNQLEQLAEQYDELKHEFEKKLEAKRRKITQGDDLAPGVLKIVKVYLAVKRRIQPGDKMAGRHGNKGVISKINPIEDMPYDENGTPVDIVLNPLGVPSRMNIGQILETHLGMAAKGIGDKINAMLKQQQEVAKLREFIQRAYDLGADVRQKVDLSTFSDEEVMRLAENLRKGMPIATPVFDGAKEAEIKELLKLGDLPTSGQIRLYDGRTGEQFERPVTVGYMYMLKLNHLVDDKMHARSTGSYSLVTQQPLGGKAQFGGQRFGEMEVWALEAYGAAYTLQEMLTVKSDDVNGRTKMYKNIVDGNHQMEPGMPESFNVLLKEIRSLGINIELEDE
# T1 sequence (P00579 whole entry, further chain): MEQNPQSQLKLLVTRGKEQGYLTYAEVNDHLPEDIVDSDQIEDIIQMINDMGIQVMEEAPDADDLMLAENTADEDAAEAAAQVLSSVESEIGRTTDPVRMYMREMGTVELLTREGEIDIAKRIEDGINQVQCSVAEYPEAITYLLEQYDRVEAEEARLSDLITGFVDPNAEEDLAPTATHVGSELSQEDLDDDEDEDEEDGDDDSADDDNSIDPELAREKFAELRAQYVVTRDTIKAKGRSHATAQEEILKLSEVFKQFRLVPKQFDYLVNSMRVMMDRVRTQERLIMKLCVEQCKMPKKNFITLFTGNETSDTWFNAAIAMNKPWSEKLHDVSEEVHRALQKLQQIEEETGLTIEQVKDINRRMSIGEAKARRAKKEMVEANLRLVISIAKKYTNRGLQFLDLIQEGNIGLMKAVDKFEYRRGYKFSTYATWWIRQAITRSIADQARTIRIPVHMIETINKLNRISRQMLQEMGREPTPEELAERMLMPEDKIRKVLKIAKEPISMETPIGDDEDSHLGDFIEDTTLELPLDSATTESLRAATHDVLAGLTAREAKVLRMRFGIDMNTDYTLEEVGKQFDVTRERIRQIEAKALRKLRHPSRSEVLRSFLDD
# T1 sequence (P0A7Z4 whole entry, further chain): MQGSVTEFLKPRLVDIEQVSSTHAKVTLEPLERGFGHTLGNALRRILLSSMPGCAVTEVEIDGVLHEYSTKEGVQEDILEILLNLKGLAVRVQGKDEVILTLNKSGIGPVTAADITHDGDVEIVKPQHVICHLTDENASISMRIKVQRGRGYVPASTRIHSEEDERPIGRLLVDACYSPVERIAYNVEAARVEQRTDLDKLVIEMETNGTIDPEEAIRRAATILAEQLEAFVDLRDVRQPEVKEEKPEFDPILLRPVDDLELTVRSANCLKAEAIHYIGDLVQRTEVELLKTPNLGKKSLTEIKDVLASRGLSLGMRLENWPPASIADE
# T1 sequence (P0A800 whole entry, further chain): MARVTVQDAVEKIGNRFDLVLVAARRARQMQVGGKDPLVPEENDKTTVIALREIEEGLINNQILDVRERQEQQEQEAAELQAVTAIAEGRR
# T1 sequence (P0A8T7 whole entry): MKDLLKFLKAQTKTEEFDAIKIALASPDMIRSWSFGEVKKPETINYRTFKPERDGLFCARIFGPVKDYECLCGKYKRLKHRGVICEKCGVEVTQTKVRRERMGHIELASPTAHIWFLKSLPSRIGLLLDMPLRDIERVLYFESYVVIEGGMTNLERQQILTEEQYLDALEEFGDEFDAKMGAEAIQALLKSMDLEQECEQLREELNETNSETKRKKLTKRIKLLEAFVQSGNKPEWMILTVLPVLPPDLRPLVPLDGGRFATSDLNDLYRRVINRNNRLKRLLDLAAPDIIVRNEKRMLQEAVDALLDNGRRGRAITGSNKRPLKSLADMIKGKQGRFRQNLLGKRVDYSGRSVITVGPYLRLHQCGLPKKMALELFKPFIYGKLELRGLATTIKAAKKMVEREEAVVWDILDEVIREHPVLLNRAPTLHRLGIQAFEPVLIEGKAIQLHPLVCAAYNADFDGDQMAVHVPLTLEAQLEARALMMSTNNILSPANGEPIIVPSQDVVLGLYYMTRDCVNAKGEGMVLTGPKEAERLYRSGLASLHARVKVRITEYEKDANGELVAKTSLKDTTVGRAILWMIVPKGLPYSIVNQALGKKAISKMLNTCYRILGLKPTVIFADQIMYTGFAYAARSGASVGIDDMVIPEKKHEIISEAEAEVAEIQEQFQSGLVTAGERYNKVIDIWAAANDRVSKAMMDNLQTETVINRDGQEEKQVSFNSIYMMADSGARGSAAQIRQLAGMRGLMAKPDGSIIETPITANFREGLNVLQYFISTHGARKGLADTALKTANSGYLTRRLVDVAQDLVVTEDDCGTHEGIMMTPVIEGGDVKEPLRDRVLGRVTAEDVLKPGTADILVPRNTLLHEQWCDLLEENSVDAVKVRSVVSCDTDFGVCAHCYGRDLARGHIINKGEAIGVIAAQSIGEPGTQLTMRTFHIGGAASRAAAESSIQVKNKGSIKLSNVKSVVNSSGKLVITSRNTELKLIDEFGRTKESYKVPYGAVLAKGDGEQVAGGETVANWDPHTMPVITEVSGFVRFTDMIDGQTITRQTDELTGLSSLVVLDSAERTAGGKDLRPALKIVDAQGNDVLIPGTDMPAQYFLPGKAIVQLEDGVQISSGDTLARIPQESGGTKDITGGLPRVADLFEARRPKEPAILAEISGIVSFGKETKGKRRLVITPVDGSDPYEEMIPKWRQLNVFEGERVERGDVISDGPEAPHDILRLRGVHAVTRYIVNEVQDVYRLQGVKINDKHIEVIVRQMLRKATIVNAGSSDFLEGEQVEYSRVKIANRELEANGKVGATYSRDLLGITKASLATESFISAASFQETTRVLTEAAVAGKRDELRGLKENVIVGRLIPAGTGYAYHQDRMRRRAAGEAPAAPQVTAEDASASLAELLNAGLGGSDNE
substance,measurement,setting,value
Microcin J25 [MccJ25],effect on formation of open complex,RNAP holoenzyme [1],no effect
same,Vmax,RNAP holoenzyme [2]; at 1 μM MccJ25,5.3±2.8 mol/mol template/min
same,Vmax,RNAP holoenzyme [2]; at 10 μM MccJ25,2.4±2.9 mol/mol template/min
same,inhibition of formation of full-length product starting with halted elongation complex,[3],equivalent results

# — patent publication US20070196886A1 (priority 2004, published 2007)
